# Assay results reported in patent publication US20250074891A1 (Anaxis Pharma Pty Ltd., priority 2021, published 2025).
# Experiments:
# Conditions in all cases: Table 35
# [1] = biological target: RIP3 (Homo sapiens (Human), UniProt Q9Y572); assay: KINOMEscan binding assay, RIP3
# Description: (§1) Kinase assays. For most assays, kinase-tagged T7 phage strains were grown in parallel in 24-well blocks in an E. coli host derived from the BL21 strain. E. coli were grown to log-phase and infected with T7 phage from a frozen stock (multiplicity of infection=0.4) and incubated with shaking at 32° C. until lysis (90-150 minutes).
# (§2) The Hill Slope was set to −1.
# [2] = biological target: MLKL (full length) (Homo sapiens (Human), UniProt Q8NB16); assay: KINOMEscan binding assay, MLKL (full length)
# MLKL (full length), sequence (Q8NB16 whole entry): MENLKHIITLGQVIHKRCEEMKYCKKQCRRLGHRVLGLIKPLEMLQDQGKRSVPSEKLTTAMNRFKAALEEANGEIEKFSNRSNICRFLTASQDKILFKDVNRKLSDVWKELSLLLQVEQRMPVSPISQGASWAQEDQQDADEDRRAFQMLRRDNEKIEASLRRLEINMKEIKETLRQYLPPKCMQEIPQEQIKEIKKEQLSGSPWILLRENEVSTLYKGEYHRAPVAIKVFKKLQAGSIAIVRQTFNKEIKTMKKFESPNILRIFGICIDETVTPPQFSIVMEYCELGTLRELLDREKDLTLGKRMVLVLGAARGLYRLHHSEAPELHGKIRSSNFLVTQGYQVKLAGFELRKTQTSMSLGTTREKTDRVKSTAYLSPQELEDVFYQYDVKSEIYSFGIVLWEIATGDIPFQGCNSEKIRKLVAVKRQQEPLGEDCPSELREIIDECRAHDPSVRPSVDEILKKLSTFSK
# Description: as §1, §2
# [3] = biological target: RIP1 (Homo sapiens (Human), UniProt Q13546); assay: KINOMEscan binding assay, RIP1
# RIP1, sequence (Q13546 whole entry): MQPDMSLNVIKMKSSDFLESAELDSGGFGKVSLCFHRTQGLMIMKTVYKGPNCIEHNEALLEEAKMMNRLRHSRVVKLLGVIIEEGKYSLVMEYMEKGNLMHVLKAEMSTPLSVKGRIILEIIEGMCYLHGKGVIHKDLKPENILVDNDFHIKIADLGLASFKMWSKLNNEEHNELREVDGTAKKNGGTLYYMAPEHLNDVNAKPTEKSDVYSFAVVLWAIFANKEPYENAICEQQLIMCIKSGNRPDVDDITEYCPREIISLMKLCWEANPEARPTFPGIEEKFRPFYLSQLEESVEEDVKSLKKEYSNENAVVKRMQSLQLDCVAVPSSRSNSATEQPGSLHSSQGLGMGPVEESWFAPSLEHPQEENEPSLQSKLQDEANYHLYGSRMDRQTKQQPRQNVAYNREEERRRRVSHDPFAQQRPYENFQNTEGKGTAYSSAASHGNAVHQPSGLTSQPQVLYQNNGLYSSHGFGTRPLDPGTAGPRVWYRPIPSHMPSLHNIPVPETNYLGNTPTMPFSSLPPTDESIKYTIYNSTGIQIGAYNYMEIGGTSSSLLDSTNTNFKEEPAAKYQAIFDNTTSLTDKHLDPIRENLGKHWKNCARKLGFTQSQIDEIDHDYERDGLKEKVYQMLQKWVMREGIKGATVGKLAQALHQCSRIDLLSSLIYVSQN
# RIP3, sequence (Q9Y572 whole entry): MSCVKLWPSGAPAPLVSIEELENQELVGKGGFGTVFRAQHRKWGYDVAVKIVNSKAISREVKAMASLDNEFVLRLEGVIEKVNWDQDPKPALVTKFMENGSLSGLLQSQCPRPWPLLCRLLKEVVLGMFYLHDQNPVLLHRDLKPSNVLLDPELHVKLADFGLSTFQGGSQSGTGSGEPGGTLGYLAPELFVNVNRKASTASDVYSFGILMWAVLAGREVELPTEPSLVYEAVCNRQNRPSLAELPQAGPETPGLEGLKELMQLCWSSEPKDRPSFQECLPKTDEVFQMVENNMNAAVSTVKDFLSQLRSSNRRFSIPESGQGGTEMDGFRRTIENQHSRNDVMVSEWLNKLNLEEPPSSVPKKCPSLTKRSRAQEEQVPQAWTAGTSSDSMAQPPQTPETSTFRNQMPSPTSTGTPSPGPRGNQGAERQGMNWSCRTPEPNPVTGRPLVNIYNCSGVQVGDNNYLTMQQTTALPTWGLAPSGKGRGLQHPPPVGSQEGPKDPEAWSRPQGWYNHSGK
SMILES,Kd [1] [µM],Kd [2] [µM],Kd [3] [µM]
"NC(=O)c1cccc(Nc2[nH]nc(-c3ccc(NS(=O)(=O)C(F)F)cc3)c2C(N)=O)n1 [Compound 257, 6-({4-carbamoyl-3-[4-(difluoromethanesulfonamido)phenyl]-1H-pyrazol-5-yl}amino)pyridine-2-carboxamide]",> 30,< 0.01,> 30
"N#Cc1cccc(Nc2[nH]nc(-c3ccc(NS(=O)(=O)C(F)F)cc3)c2C(N)=O)n1 [Compound 258, 5-[(6-cyanopyridin-2-yl)amino]-3-[4-(difluoromethanesulfonamido)phenyl]-1H-pyrazole-4-carboxamide]",> 30,< 0.01,> 30
"CCS(=O)(=O)Nc1ccc(-c2n[nH]c(Nc3cnccn3)c2C(N)=O)cc1OCc1ccccn1 [Compound 261, 3-{4-ethanesulfonamido-3-[(pyridin-2-yl)methoxy]phenyl}-5-[(pyrazin-2-yl)amino]-1H-pyrazole-4-carboxamide]",> 30,< 0.01,> 30
"NC(=O)c1c(-c2ccc(NS(=O)(=O)CC(F)(F)F)cc2)n[nH]c1Nc1ccccn1 [Compound 268, 5-[(pyridin-2-yl)amino]-3-[4-(2,2,2-trifluoroethanesulfonamido)phenyl]-1H-pyrazole-4-carboxamide]",> 30,< 0.01,> 30
"NC(=O)c1c(-c2ccc(NS(=O)(=O)CC(F)(F)F)c(OCc3ccc(Cl)cc3)c2)n[nH]c1Nc1ccccn1 [Compound 269, 3-{3-[(4-chlorophenyl)methoxy]-4-(2,2,2-trifluoroethanesulfonamido)phenyl}-5-[(pyridin-2-yl)amino]-1H-pyrazole-4-carboxamide]",> 30,< 0.01,> 30
"Cc1nn(C)cc1Nc1[nH]nc(-c2ccc(NS(=O)(=O)C(F)F)c(O[C@@H](C)c3ccc(F)cc3)c2)c1C(N)=O [Compound 270, (S)-3-(4-((difluoromethyl)sulfonamido)-3-(1-(4-fluorophenyl)ethoxy)phenyl)-5-((1,3-dimethyl-1H-pyrazol-4-yl)amino)-1H-pyrazole-4-carboxamide]",> 30,< 0.01,> 30
"CCc1cc(Nc2[nH]nc(-c3ccc(NS(=O)(=O)C(F)F)c(O[C@@H](C)c4ccc(F)cc4)c3)c2C(N)=O)no1 [Compound 274, (S)-3-(4-((difluoromethyl)sulfonamido)-3-(1-(4-fluorophenyl)ethoxy)phenyl)-5-((5-ethylisoxazol-3-yl)amino)-1H-pyrazole-4-carboxamide]",> 30,< 0.01,> 30
"NC(=O)c1c(-c2ccc(NS(=O)(=O)C(F)F)c(OCc3nccs3)c2)n[nH]c1Nc1cnccn1 [Compound 275, 3-(4-((difluoro-methyl)sulfon-amido)-3-(thiazol-2-ylmethoxy)phenyl)-5-(pyrazin-2-ylamino)-1H-pyrazole-4-carboxamide]",> 30,< 0.01,> 30
"C[C@H](Oc1cc(-c2n[nH]c(Nc3cc(C4(C)CC4)on3)c2C(N)=O)ccc1NS(=O)(=O)C(F)F)c1ccc(F)cc1 [Compound 276, (S)-3-(4-((difluoromethyl)sulfonamido)-3-(1-(4-fluorophenyl)ethoxy)phenyl)-5-((5-(1-methylcyclopropyl)isoxazol-3-yl)amino)-1H-pyrazole-4-carboxamide]",> 30,< 0.01,> 30
"C[C@H](Oc1cc(-c2n[nH]c(Nc3cc(C(F)(F)F)n(C)n3)c2C(N)=O)ccc1NS(=O)(=O)C(F)F)c1ccc(F)cc1 [Compound 277, (S)-3-(4-((difluoromethyl)sulfonamido)-3-(1-(4-fluorophenyl)ethoxy)phenyl)-5-((1-methyl-5-(trifluoromethyl)-1H-pyrazol-3-yl)amino)-1H-pyrazole-4-carboxamide]",> 30,< 0.01,> 30
C[C@H](Oc1cc(-c2n[nH]c(Nc3ccc(C4CCOCC4)cn3)c2C(N)=O)ccc1NS(=O)(=O)C(F)F)c1ccc(F)cc1 [Compound 278],> 30,< 0.01,> 30
"C[C@H](Oc1cc(-c2n[nH]c(Nc3cc(C(C)(C)C)on3)c2C(N)=O)ccc1NS(=O)(=O)C(F)F)c1ccc(F)cc1 [Compound 282, (S)-5-((5-(tert-butyl)isoxazol-3-yl)amino)-3-(4-((difluoromethyl)sulfonamido)-3-(1-(4-fluorophenyl)ethoxy)phenyl)-1H-pyrazole-4-carboxamide]",> 30,< 0.01,> 30
"C[C@H](Oc1cc(-c2n[nH]c(Nc3ncn(C)n3)c2C(N)=O)ccc1NS(=O)(=O)C(F)F)c1ccc(F)cc1 [Compound 283, (S)-3-(4-((difluoromethyl)sulfonamido)-3-(1-(4-fluorophenyl)ethoxy)phenyl)-5-((1-methyl-1H-1,2,4-triazol-3-yl)amino)-1H-pyrazole-4-carboxamide]",> 30,< 0.01,> 30
"Cc1nc(Nc2[nH]nc(-c3ccc(NS(=O)(=O)C(F)F)c(O[C@@H](C)c4ccc(F)cc4)c3)c2C(N)=O)sc1C [Compound 284, (S)-3-(4-((difluoromethyl)sulfonamido)-3-(1-(4-fluorophenyl)ethoxy)phenyl)-5-((4,5-dimethylthiazol-2-yl)amino)-1H-pyrazole-4-carboxamide]",> 30,< 0.01,> 30
"Cc1cn(C)nc1Nc1[nH]nc(-c2ccc(NS(=O)(=O)C(F)F)c(O[C@@H](C)c3ccc(F)cc3)c2)c1C(N)=O [Compound 286, (S)-3-(4-((difluoromethyl)sulfonamido)-3-(1-(4-fluorophenyl)ethoxy)phenyl)-5-((1,4-dimethyl-1H-pyrazol-3-yl)amino)-1H-pyrazole-4-carboxamide]",> 30,< 0.01,> 30
"COCC(C)(C)c1cc(Nc2[nH]nc(-c3ccc(NS(=O)(=O)C(F)F)c(O[C@@H](C)c4ccc(F)cc4)c3)c2C(N)=O)no1 [Compound 288, (S)-3-(4-((difluoromethyl)sulfonamido)-3-(1-(4-fluorophenyl)ethoxy)phenyl)-5-((5-(1-methoxy-2-methylpropan-2-yl)isoxazol-3-yl)amino)-1H-pyrazole-4-carboxamide]",> 30,< 0.01,> 30

# Results, then the molecule that gave them:
Kd [1] [µM],Kd [2] [µM],Kd [3] [µM],SMILES
> 30,< 0.01,> 30,"C[C@H](Oc1cc(-c2n[nH]c(Nc3cnccn3)c2C(N)=O)ccc1NS(=O)(=O)CC(F)(F)F)c1ccc(Cl)cc1 [Compound 259, 3-{3-[(1S)-1-(4-chlorophenyl)ethoxy]-4-(2,2,2-trifluoroethane-sulfonamido)phenyl}-5-[(pyrazin-2-yl)amino]-1H-pyrazole-4-carboxamide]"
> 30,< 0.01,> 30,C[C@H](Oc1cc(-c2n[nH]c(Nc3ccccn3)c2C(N)=O)ccc1NS(=O)(=O)C(F)F)c1ccc(F)cc1 [Compound 260]
> 30,< 0.01,> 30,"NC(=O)c1c(-c2ccc(NS(=O)(=O)CC(F)(F)F)c(OCc3ccc(Cl)cn3)c2)n[nH]c1Nc1cnccn1 [Compound 262, 3-{3-[(5-chloropyridin-2-yl)methoxy]-4-(2,2,2-trifluoroethane-sulfonamido)phenyl}-5-[(pyrazin-2-yl)amino]-1H-pyrazole-4-carboxamide]"
> 30,< 0.01,> 30,"Cc1cnc(Nc2[nH]nc(-c3ccc(NS(=O)(=O)CC(F)(F)F)c(O[C@@H](C)c4ccc(F)cc4)c3)c2C(N)=O)cn1 [Compound 264, 3-{3-[(1S)-1-(4-fluorophenyl)ethoxy]-4-(2,2,2-trifluoroethanesulfonamido)phenyl}-5-[(5-methylpyrazin-2-yl)amino]-1H-pyrazole-4-carboxamide]"
> 30,< 0.01,> 30,"NC(=O)c1c(-c2ccc(NS(=O)(=O)CC(F)(F)F)c(OC(c3ccc(F)cc3)C3CCC3)c2)n[nH]c1Nc1cnccn1 (stereo not drawn) [Compound 266, 3-{3-[cyclobutyl(4-fluorophenyl)methoxy]-4-(2,2,2-trifluoroethanesulfonamido)phenyl}-5-[(pyrazin-2-yl)amino]-1H-pyrazole-4-carboxamide]"
> 30,< 0.01,> 30,"C[C@H](Oc1cc(-c2n[nH]c(Nc3cnccn3)c2C(N)=O)ccc1NS(=O)(=O)CC(F)(F)F)c1ccccn1 [Compound 267, 5-[(pyrazin-2-yl)amino]-3-{3-[(1S)-1-(pyridin-2-yl)ethoxy]-4-(2,2,2-trifluoroethanesulfonamido)phenyl]-1H-pyrazole-4-carboxamide]"
> 30,< 0.01,> 30,"C[C@@H](Oc1cc(-c2n[nH]c(Nc3cnccn3)c2C(N)=O)ccc1NS(=O)(=O)C(F)F)c1ccc(F)cc1 [Compound 271, (R)-3-(4-((difluoro-methyl)sulfon-amido)-3-(1-(4-fluorophenyl)ethoxy)phenyl)-5-(pyrazin-2-ylamino)-1H-pyrazole-4-carboxamide]"
> 30,< 0.01,> 30,"C[C@H](Oc1cc(-c2n[nH]c(Nc3cc(C4CCC4)on3)c2C(N)=O)ccc1NS(=O)(=O)C(F)F)c1ccc(F)cc1 [Compound 281, (S)-5-((5-cyclobutylisoxazol-3-yl)amino)-3-(4-((difluoromethyl)sulfonamido)-3-(1-(4-fluorophenyl)ethoxy)phenyl)-1H-pyrazole-4-carboxamide]"
> 30,< 0.01,> 30,"C[C@H](Oc1cc(-c2n[nH]c(Nc3cc(C4CCOCC4)ccn3)c2C(N)=O)ccc1NS(=O)(=O)C(F)F)c1ccc(F)cc1 [Compound 287, (S)-3-(4-((difluoromethyl)sulfonamido)-3-(1-(4-fluorophenyl)ethoxy)phenyl)-5-((4-(tetrahydro-2H-pyran-4-yl)pyridin-2-yl)amino)-1H-pyrazole-4-carboxamide]"
